Laboratory results as given in the supplement of paper PMC10307832.

Legend:
Test in all cases: relative viability (nuclei count vs DMSO), 5 days (fraction); higher = more cells survive
Luminespib = compound: CCNC(=O)c1noc(-c2cc(C(C)C)c(O)cc2O)c1-c1ccc(CN2CCOCC2)cc1 [Luminespib]
Method in brief: (§1)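 MetaXpress counted nuclei in 4× images of lung cancer cell lines that had been fixed, permeabilised and Hoechst-stained in one step. Before that, cells in 1536-well plates were kept overnight at 37 °C, pinned with five √10-spaced library-drug doses on vehicle-anchored plates, and cultured 5 days without medium change. Viability takes treated-well nuclei over vehicle-well nuclei and uses the median across plates. Plates were accepted only at control CV below 25% and at least one doubling.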

Lenalidomide = compound: Nc1cccc2c1CN(C1CCC(=O)NC1=O)C2=O [Lenalidomide]
Method in brief: as §1

MIM1 = compound: CC1=CSC(=NC2CCCCC2)N1/N=C/C3=C(C(=C(C=C3)O)O)O [MIM1]
Method in brief: as §1

Nilotinib = compound: Cc1cn(-c2cc(NC(=O)c3ccc(C)c(Nc4nccc(-c5cccnc5)n4)c3)cc(C(F)(F)F)c2)cn1 [Nilotinib]
Method in brief: as §1

Saracatinib = compound: CN1CCN(CCOc2cc(OC3CCOCC3)c3c(Nc4c(Cl)ccc5c4OCO5)ncnc3c2)CC1 [Saracatinib]
Method in brief: as §1

| Cell Line | relative viability (Luminespib; 0.002 µM) | relative viability (Luminespib; 0.006325 µM) | relative viability (Luminespib; 0.01 µM, anchor plate) | relative viability (Luminespib; 0.02 µM) | relative viability (Luminespib; 0.06325 µM) | relative viability (Luminespib; 0.2 µM) | relative viability (Lenalidomide; 0.253 µM) | relative viability (Lenalidomide; 0.8 µM) | relative viability (Lenalidomide; 2.53 µM) | relative viability (Lenalidomide; 8 µM) | relative viability (MIM1; 0.2 µM) | relative viability (MIM1; 0.6325 µM) | relative viability (MIM1; 2 µM) | relative viability (MIM1; 6.325 µM) | relative viability (MIM1; 20 µM) | relative viability (Nilotinib; 0.003162 µM) | relative viability (Nilotinib; 0.01 µM) | relative viability (Nilotinib; 0.03162 µM) | relative viability (Nilotinib; 0.1 µM) | relative viability (Saracatinib; 0.02 µM) | relative viability (Saracatinib; 0.2 µM) | relative viability (Saracatinib; 0.6325 µM) | relative viability (Saracatinib; 2 µM) | relative viability (Nilotinib; 0.001 µM) |
| --- | --- | --- | --- | --- | --- | --- | --- | --- | --- | --- | --- | --- | --- | --- | --- | --- | --- | --- | --- | --- | --- | --- | --- | --- |
| 201T | 0.973 | 0.896 | 1.06 | 0.88 | 0.969 | 0.295 | 0.985 | 0.835 | 1.01 | 0.96 | 1 | 1 | 0.987 | 0.555 | 0.483 | 1.11 | 0.979 | 1.02 | 0.47 | 0.99 | 0.826 | 0.923 | 0.722 | – |
| A549 | 1.04 | 0.923 | – | 0.432 | 0.085 | 0.0435 | 0.986 | 0.97 | 1.13 | 0.954 | 0.967 | 0.933 | 0.946 | 0.782 | 0.333 | 1.21 | 1.1 | 0.739 | 0.665 | 1.04 | 0.81 | 1.09 | 0.898 | 0.948 |
| A-427 | 1.06 | 0.906 | 1.03 | 0.793 | 0.395 | 0.244 | 1.04 | 0.979 | 1.15 | 0.918 | 1.05 | 0.746 | 0.973 | 0.783 | 0.218 | 1.06 | 1.08 | 0.871 | 0.182 | 1.03 | 0.904 | 0.935 | 0.924 | 0.955 |
| ABC-1 | 0.993 | 0.865 | 0.718 | 0.63 | 0.239 | 0.2 | 1.01 | 0.774 | 0.993 | 0.825 | 0.902 | 1.15 | 0.9 | 0.485 | 0.264 | 0.907 | 1.05 | 0.78 | 0.322 | 0.942 | 0.811 | 1 | 0.899 | 1 |
| BEN | 0.944 | 0.925 | 0.383 | 0.442 | 0.656 | 0.355 | 1.09 | 0.892 | 1.12 | 0.731 | 1.02 | 0.914 | 1.01 | 0.853 | 0.323 | 1.03 | 0.929 | 0.926 | 0.786 | 1.11 | 0.755 | 1.05 | 0.759 | 0.876 |
| CAL-12T | 1.03 | 0.933 | 0.47 | 0.591 | 0.136 | 0.13 | 0.979 | 1.04 | 1.27 | 1.16 | 1.05 | 0.819 | 0.92 | 0.708 | 0.434 | 0.91 | – | 0.688 | 0.654 | 1.06 | 0.996 | 1.14 | 0.903 | 0.928 |
| COR-L23 | 1.14 | 0.913 | 0.672 | 0.925 | 0.091 | 0.0907 | 1.01 | 0.957 | 1.2 | 1.22 | 0.995 | 1.11 | 1.01 | 0.77 | 0.424 | 1.34 | 1.2 | 0.704 | 0.768 | 1.05 | 0.856 | 0.905 | 0.975 | 0.877 |
| COR-L 105 | 0.873 | 0.913 | 0.822 | 0.627 | 0.232 | 0.24 | 0.976 | 0.971 | 1.05 | 1.01 | 1 | 0.878 | 0.986 | 0.769 | 0.412 | 0.915 | 1.13 | 0.87 | 0.845 | 1.08 | 0.868 | 0.769 | 0.542 | 1.11 |
| Calu-6 | 1.03 | 0.892 | – | 0.899 | 0.136 | 0.122 | 0.973 | 1.02 | 1.09 | 1.02 | 1.03 | 0.928 | 0.967 | 0.444 | 0.242 | 1.07 | 1.09 | 0.781 | 0.891 | 0.923 | 0.902 | 0.926 | 0.755 | 0.937 |
| ChaGo-K-1 | 1.07 | 1.01 | 0.666 | 0.978 | 0.816 | 0.335 | 0.946 | 1.05 | 1.04 | 1.01 | 0.995 | 0.896 | 0.971 | 0.738 | 0.235 | 1.16 | 1.11 | 0.789 | 0.532 | 0.992 | 0.807 | 1.05 | 0.927 | 0.926 |
| EBC-1 | 0.984 | 0.877 | – | 0.326 | 0.128 | 0.142 | 1.03 | 1.04 | 1.1 | 0.955 | 1.02 | 0.995 | 0.981 | 0.682 | 0.471 | 1.16 | 1.1 | 0.679 | 0.725 | 1.1 | 0.933 | 1.11 | 1.08 | 0.818 |
| EKVX | 0.956 | 0.724 | 0.851 | 0.655 | 0.878 | 0.356 | 0.988 | 0.803 | 1.05 | 0.846 | 0.94 | 1 | 0.881 | 0.604 | 0.511 | 1.16 | 1.15 | 0.854 | 0.659 | 1.03 | 0.738 | 0.966 | 0.631 | 0.823 |
